Patent publication US7771977B2, “Alkane polyol dehydrogenase” (National University Corporation Nara Institute of Science …, priority 2006, dated 2010)
“Also recorded” adds a separate entry of the source. Like-named read-outs stand apart in the source and are kept apart here.

Tests used:
[1] = tested on: alkane polyol dehydrogenase (purified enzyme); assay type: biochemical, Pichia ofunaensis; conditions: purified enzyme; for Oxidative Activity: 2 mM NAD+, pH 8.0, 25° C.; for oxidative (dehydrogenation) activity of the purified enzyme, in words: Tables 2 and 4
Experimental: The reaction solutions were prepared using plural substrates with varied concentrations. Each solution contained a substrate, 2 mM NAD^+, and an enzyme, and was allowed to react in a 100 mM potassium phosphate buffer solution (pH 8.0) at 25° C. Then, changes in absorbance (molar absorption coefficient 6,220 M^−1·cm^−1) at 340 nm due to the NADH formation were measured. 1 U is defined as an enzyme amount for catalyzing 1 μmol NADH formation per minute.
The alkane polyol dehydrogenase obtained in Example 1 was utilized to measure the enzyme activities in the following manner.
(§1) 1 U was defined as the amount of enzyme that catalyzes the formation of 1 μmol of NADH per minute.
(§2) Measurement was performed in the same manner as in the activity measurements described earlier in 4-1.
Such activity was measured by causing a reaction mixture containing 5 mM (R)-1,2-octanediol, 2 mM NAD^+ and enzyme to react in a 100 mM potassium phosphate buffer solution (pH 8.0) at 25° C., then observing the change, due to NADH formation, of absorbance (molecular absorption coefficient 6,220 M^−1 ·cm^−1) at 340 nm. 1 U was defined as the amount of enzyme that catalyzes the formation of 1 μmol of NADH per minute.

[2] = tested on: alkane polyol dehydrogenase expressed in E. coli HB101 (pSE-HOG); experiment: Substrate specificity, cell extract of transformant E. coli HB101 (pSE-HOG); assay type: biochemical, Pichia ofunaensis; conditions: for Activity, E. coli HB101 (pSE-HOG): cell extract, 2 mM NAD+, pH 8.0, 25° C.; for dehydrogenation (oxidative) activity of E. coli HB101 (pSE-HOG), in words: Table 4
Experimental: The Escherichia coli HB101 strain containing the pSE-HOG was cultivated in LB medium containing ampicillin. When the absorbance at 600 nm was 0.5, 0.1 mM IPTG was added thereto. Six hours after the addition, cells were harvested by centrifugal separation.
The obtained cells were suspended in a cell disruption solution (100 mM potassium phosphate buffer solution (pH 8.0)). The cell bodies therein were disrupted using a mini bead beater (produced by BioSpec Products), then subjected to centrifugal separation for 10 minutes under an acceleration of 16,000 g. Thereby, the supernatant thereof as a cell extract was obtained.
as §1
(§3) The substrate specificity of the protein of the present invention was analyzed using the purified enzyme obtained in Example 1 and the transformant (E. coli HB101 (pSE-HOG)) obtained in Example 3. For comparison, the same analysis was conducted with respect to a transformant (E. coli HB101 (pSE420D)) that was produced in the same manner as for E. coli HB101 (pSE-HOG), except that the plasmid (pSE420D) in which the relevant enzyme gene was not inserted was used.
as §2

E. coli HB101 (pSE420D) = experiment: Substrate specificity, comparison transformant E. coli HB101 (pSE420D) without the enzyme gene; assay type: biochemical, Escherichia coli; conditions: for Activity, E. coli HB101 (pSE-420D): comparison transformant, substrate 100 mM, 2 mM NAD+, pH 8.0, 25° C.
Experimental: as §1, §3, §2

[3] = tested on: Pichia ofunaensis AKU4328 cells; experiment: Glycerol dehydrogenation activity of glycerol-induced Pichia ofunaensis cells; assay type: biochemical
Text: Pichia ofunaensis AKU4328 was pre-cultured in medium containing 4 g/L of ammonium chloride, 1 g/L of phosphoric acid 2 hydrogen 1 potassium, 1 g/L of phosphoric acid 1 hydrogen 2 potassium, 0.5 g/L of magnesium sulfate 7 hydrate, 1 g/L of yeast extract, and 1% glucose. Ten hours after the initiation of the main culture in induction medium consisting of a basal medium with 1% glycerol, the cells were harvested. Since the specific activity of glycerol was 3.6 U/mg (protein), it was confirmed that the same protein as the purified enzyme obtained in Example 1 was expressed by 7%.
In relation to the measurement of the enzyme activity, a reaction mixture containing a […] ammonium chloride/ammonia buffer (pH 9.0), 100 mM glycerol, 2.0 mM NAD^+ and an enzyme solution was subjected to a reaction at 25° C.; subsequently, the change, due to NADH formation, of absorbance (molecular absorption coefficient 6,220 M^−1 ·cm^−1) at 340 nm was measured. 1 U refers to the amount of enzyme that catalyzes the formation of 1 μmol of NADH per minute. […]
The activity at this time was measured by causing a reaction mixture containing a 100 mM ammonium chloride/ammonia buffer (pH 9.0), 100 mM glycerol, 2.0 mM NAD^+ and an enzyme solution to react at 25° C., then observing the change, due to NADH formation, of absorbance (molecular absorption coefficient 6,220 M^−1·cm^−1) at 340 nm. […]

[4] = Enzyme activity of purification fractions with 100 mM glycerol; assay type: biochemical, Pichia ofunaensis; conditions: 2 mM NAD+, pH 8.0, 25° C., purification step
Experimental: The entire purification process was performed at 4° C., unless otherwise indicated. The cells (20 g wet cell weight) prepared as above in 1-1, were suspended in buffer solution A (100 mM potassium phosphate buffer solution (pH 7.0) and 1 mM dithiothreitol (hereinafter simply referred to as DTT)). The resulting suspension was mixed with 100 ml of glass beads, and disrupted with a bead beater (produced by BioSpec, Bartlesville, USA).
The obtained cell extract was allowed to adsorb to a DEAE-cellulose column (diameter 4.0 cm×height 3.5 cm, produced by Wako Pure Chemical Ind. Ltd., Osaka) that was pre-equilibrated with buffer solution A. Thereafter, the gradient of 0-1 M potassium chloride was applied to buffer solution A to elute protein at a flow rate of 1 ml/min.
The eluted active fractions were collected, and dialyzed against buffer solution A containing 40% saturated ammonium sulfate. […]
In connection with the enzyme activity, a reaction mixture containing 100 mM glycerol, 2 mM NAD^+ and enzyme was allowed to react in a 100 mM potassium phosphate buffer solution (pH 8.0) at 25° C.; subsequently, the change, due to NADH formation, of absorbance (molar absorption coefficient 6,220 M^−1·cm^−1) at 340 nm was measured and analyzed. […]

Molecule: C[C@H](O)[C@H](C)O [(2S,3S)-2,3-Butanediol]
- Oxidative Activity ([1]; substrate 100 mM): 19.4 U/mg
- Activity, E. coli HB101 (pSE-HOG) ([2]; substrate 100 mM): 0.12 U/mg

Molecule: C[C@@H](O)CO [(R)-1,2-Propanediol]
- Oxidative Activity ([1]; substrate 100 mM): 89.2 U/mg
- Activity, E. coli HB101 (pSE-420D) (E. coli HB101 (pSE420D)): <0.1 U/mg
- Activity, E. coli HB101 (pSE-HOG) ([2]; substrate 100 mM): 0.80 U/mg

Molecule: CC(O)CO (centres unmarked) [1,2-Propanediol]
- oxidative (dehydrogenation) activity of the purified enzyme, in words [1]: well-oxidized; also recorded: high dehydrogenation activity
- Oxidative Activity ([1]; substrate 100 mM): 71.7 U/mg
- dehydrogenation (oxidative) activity of E. coli HB101 (pSE-HOG), in words [2]: high dehydrogenation activity

Molecule: CC(O)C(C)O (stereo not drawn) [meso-2,3-Butanediol]
- Oxidative Activity ([1]; substrate 100 mM): 160 U/mg
- Activity, E. coli HB101 (pSE-420D) (E. coli HB101 (pSE420D)): <0.1 U/mg
- Activity, E. coli HB101 (pSE-HOG) ([2]; substrate 100 mM): 1.17 U/mg

Molecule: OCC[C@H](O)CO [(S)-1,2,4-Butanetriol]
- oxidative (dehydrogenation) activity of the purified enzyme, in words [1]: no activity was seen
- dehydrogenation (oxidative) activity of E. coli HB101 (pSE-HOG), in words [2]: no activity was seen

Molecule: CCCCCCC(O)CO (centres unmarked) [1,2-Octanediol]
- oxidative (dehydrogenation) activity of the purified enzyme, in words [1]: well-oxidized
- oxidative (dehydrogenation) activity of the purified enzyme, in words ([1]; listed as (R,S)-1,2-octanediol): excellent dehydrogenation activity; also recorded: show an oxidative activity
- Oxidative Activity ([1]; substrate 5 mM): 64.3 U/mg
- dehydrogenation activity of E. coli HB101 (pSE420D), in words (E. coli HB101 (pSE420D); Table 4): does not show the dehydrogenation activity
- dehydrogenation (oxidative) activity of E. coli HB101 (pSE-HOG), in words ([2]; listed as (R,S)-1,2-octanediol): excellent dehydrogenation activity; also recorded: show an oxidative activity
- Activity, E. coli HB101 (pSE-HOG) ([2]; substrate 5 mM): 0.53 U/mg

Molecule: C[C@@H](O)[C@@H](C)O [(2R,3R)-2,3-Butanediol]
- Oxidative Activity ([1]; substrate 100 mM): 82.1 U/mg
- Activity, E. coli HB101 (pSE-HOG) ([2]; substrate 100 mM): 0.72 U/mg

Molecule: OCC[C@@H](O)CO [(R)-1,2,4-Butanetriol]
- oxidative (dehydrogenation) activity of the purified enzyme, in words [1]: significant dehydrogenation activity
- Oxidative Activity ([1]; substrate 100 mM): 3.9 U/mg
- dehydrogenation (oxidative) activity of E. coli HB101 (pSE-HOG), in words [2]: significant dehydrogenation activity
- Activity, E. coli HB101 (pSE-HOG) ([2]; substrate 100 mM): 0.15 U/mg

Molecule: CC(O)C(C)O (centres unmarked) [2,3-Butanediol]
- oxidative (dehydrogenation) activity of the purified enzyme, in words [1]: well-oxidized; also recorded: high dehydrogenation activity
- Oxidative Activity ([1]; substrate 100 mM): 50.0 U/mg
- dehydrogenation (oxidative) activity of E. coli HB101 (pSE-HOG), in words [2]: high dehydrogenation activity

Molecule: OCC(O)CO [Glycerol]
- Oxidative Activity ([1]; substrate 100 mM): 39.1 U/mg
- specific activity of the cells against glycerol ([3]; 1% glycerol induction, 100 mM glycerol, 2.0 mM NAD+, pH 9.0, 25° C.): 3.6 U/mg (protein)
- glycerol dehydrogenation activity per 1 kg of wet cell weight ([3]; per 1 kg wet cell weight): 1,300,000 U

Molecule: C[C@H](O)CO [(S)-1,2-Propanediol]
- Oxidative Activity ([1]; substrate 100 mM): 36.4 U/mg
- Activity, E. coli HB101 (pSE-420D) (E. coli HB101 (pSE420D)): <0.1 U/mg
- Activity, E. coli HB101 (pSE-HOG) ([2]; substrate 100 mM): 0.29 U/mg

B1: Superdex 200: purified alkane polyol dehydrogenase of Pichia ofunaensis (SEQ ID NO: 1) after Superdex 200 gel filtration (protein, listed as Pichia ofunaensis)
chain: MKGLLYYKTGDIRYSEDVEEPEILSSHDVKIRVKFCGICGTDLKEYTYEGGPLFLPKPGSSDKISGLELPLCPGHEFCGVVEEVGESVTRVKPGDRVAVEATTHCSDAVHYGVHDMELCVACKNGSPNCCTHLSFCGLGGASGGFAEKVVYGEEHMLKLPDSIPFDIGALIEPLAVAWHAVECAKFKPGSTALVLGGGPIGLATILALQGHQAGRIVCSEPACIRREYAAKFGAEVFDPSQHDDVIHELKALLPENGGFDASFDCSGVPQTFTTSIEALAPGGMAVNVAIWGDHAIDFGAMCLTYQEKTCTGSMCYTVKDFEEVINALDKGLISISKARLMITGKVNLKDGVELGFKQLIEHKETNIKILVTPDEV
- Specific Activity [4]: 51 U/mg
